Measurements as given in the SangsterLogP compilation.

| logP | SMILES |
| --- | --- |
| 2.01 | CONC(=O)[C@@H](C(C)C)N(Cc1cccnc1)S(=O)(=O)c1ccccc1Cl |
| 1.4 | CC(C)[C@H](C(=O)NO)N(Cc1cccnc1)S(=O)(=O)c1ccc(F)cc1 |
| 1.92 | CC(C)[C@H](C(=O)NO)N(Cc1cccnc1)S(=O)(=O)c1cccc(Br)c1 |
| 2.51 | CONC(=O)[C@@H](C(C)C)N(Cc1cccnc1)S(=O)(=O)c1ccc(Br)cc1 |
| 1.91 | CC(C)C(C(=O)NO)N(Cc1cccnc1)S(=O)(=O)c1ccc(Br)cc1 (configuration not stated) |
| 1.65 | CC(C)[C@H](C(=O)NO)N(Cc1cccnc1)S(=O)(=O)c1ccccc1F |
| 2.38 | CONC(=O)[C@@H](C(C)C)N(Cc1cccnc1)S(=O)(=O)c1cccc(Cl)c1 |
| 3.11 | CONC(=O)C(C(C)C)N(Cc1cccnc1)S(=O)(=O)c1ccc(I)cc1 (configuration not stated) |
| 2.67 | CONC(=O)[C@@H](C(C)C)N(Cc1cccnc1)S(=O)(=O)c1ccccc1F |
| 3.34 | CONC(=O)[C@@H](C(C)C)N(Cc1cccnc1)S(=O)(=O)c1ccccc1Br |
| 2.4 | CONC(=O)[C@@H](C(C)C)N(Cc1cccnc1)S(=O)(=O)c1ccc(Cl)cc1 |
| 1.45 | CC(C)[C@H](C(=O)NO)N(Cc1cccnc1)S(=O)(=O)c1ccccc1Cl |
| 1.81 | CC(C)[C@H](C(=O)NO)N(Cc1cccnc1)S(=O)(=O)c1ccc(Cl)cc1 |
| 2.45 | CC(C)[C@H](C(=O)NO)N(Cc1cccnc1)S(=O)(=O)c1ccc(I)cc1 |
| 1.82 | CC(C)[C@H](C(=O)NO)N(Cc1cccnc1)S(=O)(=O)c1cccc(Cl)c1 |
| 1.54 | CC(C)C(C(=O)NO)N(Cc1cccnc1)S(=O)(=O)c1ccccc1Br (configuration not stated) |
| 2 | CONC(=O)[C@@H](C(C)C)N(Cc1cccnc1)S(=O)(=O)c1ccc(F)cc1 |
